Tests used:
[1] = Plasma pharmacokinetic analysis in rats, i.v. bolus; format: in vivo; conditions: male, Sprague-Dawley, rat
Text: (§1) Quantitative analysis was used to determine the concentration of a test inhibitor, N1-((2S,3R)-4-((5-(2-fluoropropan-2-yl)pyridin-3-yl)methylamino)-3-hydroxy-1-phenylbutan-2-yl)-N3-methyl-N3-((4-methylthiazol-2-yl)methyl)isophthalamide, in biological tissues. The test inhibitor was extracted from a variety of biological samples followed by its selective identification and quantification from a standard curve prepared in the same extracted biological matrix. Briefly, this extraction is accomplished through a simple protein precipitation technique performed on collected plasma. The resultant extractions are then quantified using the LC/MS protocol as detailed herein.
Whole blood from animals dosed with the test inhibitor was collected in lithium heparin anti-coagulant tubes. These samples were centrifuged to allow the subsequent collection of plasma, with plasma aliquots immediately stored at −70° C. For quantitative analysis, the samples were then thawed on ice and a 20 μl aliquot was added to a well of a multi-screen Solvinert filter plate (Millipore). A five-fold volume of acetonitrile was added to each sample to facilitate protein precipitation, the samples were multiply aspirated or shaken to mix and then centrifuged at 4500 rpm for 15 minutes to filter the samples, with the supernatant being collected in an underlying 96 well receiving plate. The receptor plate was then dried via speed vacuum at 40° C. The sample was reconstituted by multiple aspirations with a reconstitution buffer composed of 10% acetonitrile, 10% DMSO, 80% H2O with an internal standard added at a concentration of 100 ng/ml. Standards of the test inhibitor were prepared in 100% DMSO for the generation of a standard curve for sample quantification. The samples range from 1 to 100000 ng/ml, as required for the analysis. A 1 μl aliquot of standard was added per 10 μl of blank plasma to construct a calibration curve, 0.1 ng/ml to 10000 ng/ml, prior to the protein precipitation step again as required for analysis. Quality control samples were prepared identically, from an alternate standard source and a single sample was prepared with an identical volume spike added post precipitation and collection to monitor the extraction efficiency. This method was applicable to plasma from all species currently being tested. Solvinert filter wells were pre-washed with 100 μl of 10% MeOH/90% ACN followed by centrifugation at 4500 RPM for 10 min prior to use.
(§2) Quantitative analysis was performed through LC/MS analysis. The system was composed of an Eksigent Express LC 100 microflow HPLC system, coupled with an Eksigent CXP C-8AR 0.3*50 mm, or other suitable column, and a Thermo TSQuantum Classic triple quadrupole mass spectrometer running in positive ion, SRM mode. The HPLC buffers were 99.5% H2O, 0.5% formic acid (buffer A) and 99.5% acetonitrile, 0.5% formic acid (buffer B). Typically, a 10 μl aliquot was injected onto the column followed by a 1.5 minute chromatographic analysis. This analysis was conducted at a 20 μl/min flow rate, and composed of a gradient from 15% B to 90% B followed by a 98% B flush to facilitate compound separation and quantitation. Each sample was analyzed in duplicate, with QC, and system blank samples run after every sample set. The column effluent was analyzed in real time by MS/MS to allow the positive identification and quantification of the test inhibitor by compound fingerprint analysis. This was accomplished by allowing only species of 586.3 Da to pass through the first quadrupole, followed by collision induced decay in quadrupole two and scanning analysis of selected daughter ions specific to the test compound in quadrupole three. The collected data was analyzed using the LCQuan software package from Thermo Electron, to determine the levels of the test compound in the samples.
Male Sprague-Dawley Rats (200-400 g) were obtained from Taconic Farms (Hudson, N.Y.) with a pre-implanted jugular vein cannula (JVC) for blood sampling. […]

[2] = Brain pharmacokinetic analysis / brain penetration in rats, i.v. bolus; format: in vivo
Text: as §1, §2
Male Sprague-Dawley Rats (200-400 g) were obtained from Taconic Farms (Hudson, N.Y.) with a pre-implanted jugular vein cannula (JVC) for blood sampling. A solution (5 mg/mL, free base equivalents) of the test inhibitor, N1-((2S,3R)-4-((5-(2-fluoropropan-2-yl)pyridin-3-yl)methylamino)-3-hydroxy-1-phenylbutan-2-yl)-N3-methyl-N3-((4-methylthiazol-2-yl)methyl)isophthalamide mono-citrate salt, was prepared freshly in 35% hydroxypropyl-β-cyclodextrin (HPBCD). Intravenous bolus injection was conducted using a 25 gauge needle via the tail vein. Animals were supplied with water and a commercial rodent diet ad libitum prior to and during the study.
Blood samples (˜100 μl at each time point) for plasma pharmacokinetic (PK) analysis were collected from the JVC cannula into lithium-heparin tubes at 2 min, 5 min, 15 min, 30 min, 45 min, 1 hr, 2 hr, 4 hr, 6 hr and 24 hr post-dose (Group A in Table 2). For compartmental PK analysis, blood and brain were collected from animals in Group B (Table 2) at 15 min, 1 hr, 2 hr, 4 hr, and 6 hr post-dose, with three rats assigned to each time point. Animals were deeply anesthetized with isoflurane and blood collected by cardiocentesis. Plasma separated by centrifugation at 6000 rpm×10 min. Brain hemispheres were subsequently harvested and snap frozen in liquid nitrogen. Plasma and brain samples were subsequently stored at −70° C.
Bioanalysis of the test inhibitor from plasma and brain extracts was performed according to standard procedures. Briefly, 20 μl of plasma was extracted with 100 μl of acetonitrile using a 96-well Solvinert filter plate (Millipore). Samples were subjected to LC/MS/MS analysis using an Eksigent Express LC 100 microflow HPLC system, coupled with an Eksigent CXP C-18AR 0.3*50 mm column, and a Thermo TSQuantum Classic triple quadrupole mass spectrometer running in positive ion, SRM mode. […]

[3] = male, Sprague-Dawley, rat, in vivo, iv, 10 mg/kg

## Cc1csc(CN(C)C(=O)c2cccc(C(=O)N[C@@H](Cc3ccccc3)[C@H](O)CNCc3cncc(C(C)(C)F)c3)c2)n1 [test inhibitor, N1-((2S,3R)-4-((5-(2-fluoropropan-2-yl)pyridin-3-yl)methylamino)-3-hydroxy-1-phenylbutan-2-yl)-N3-methyl-N3-((4-methylthiazol-2-yl)methyl)isophthalamide]
[1]; in vivo, iv, 10 mg/kg
  concentration at 0.25 h: 2500 ng/mL
  concentration at 1 h: 548 ng/mL
  concentration at 2 h: 130 ng/mL
  concentration at 4 h: 31.1 ng/mL
  concentration at 6 h: 5.7 ng/mL
  concentration at 24 h: 2.2 ng/mL
[1]; plasma, iv, 10 mg/kg, rats, i.v. bolus 10 mg/kg, read-out: Plasma Terminal phase t1/2 (converted)
  half-life: 13.1 h
[1]; plasma, iv, 10 mg/kg, rats, single 10 mg/kg intravenous dose, read-out: half-life in plasma
  half-life: 6 to 13 h
[1]; plasma, iv, rats, single dose i.v. 10 mg/kg, read-out: AUC24 hr, Plasma
  AUC(0-t): 2580 ng·h/mL
[2]; [3]
  Brain Terminal phase t1/2: 34.3 h
  MRT last: 12 h
  Penetration (%), brain relative to plasma AUC24 hr: 46.8%
  concentration at 0.25 h: 160 ng/mL
  concentration at 1 h: 71.1 ng/mL
  concentration at 2 h: 72.4 ng/mL
  concentration at 4 h: 28 ng/mL
  concentration at 6 h: 42.7 ng/mL
  concentration at 24 h: 52.5 ng/mL
[2]; male, Sprague-Dawley, rat, in vivo, iv, 10 mg/kg, Brain Terminal phase t1/2
  half-life: 34 h
[2]; male, Sprague-Dawley, rat, in vivo, iv, rats, single dose i.v. 10 mg/kg, read-out: AUC24 hr, Brain
  AUC(0-t): 1210 ng·h/mL
[2]; rats, i.v. bolus 10 mg/kg
  Brain AUC24 hr: 1206.2 ng·h/mL

## Cc1csc(CN(C)C(=O)c2cccc(C(=O)N[C@@H](Cc3ccccc3)[C@H](O)CNCc3cncc(C(C)(C)F)c3)c2)n1 [N1-((2S,3R)-4-((5-(2-fluoropropan-2-yl)pyridin-3-yl)methylamino)-3-hydroxy-1-phenylbutan-2-yl)-N3-methyl-N3-((4-methylthiazol-2-yl)methyl)isophthalamide]
[1]; plasma, rats, single 10 mg/kg intravenous dose, read-out: 24 hr plasma AUC
  AUC: 2580 ng·h/mL
[2]; male, Sprague-Dawley, rat, in vivo, iv, 10 mg/kg, Penetration (%), brain relative to plasma AUC24 hr
  Kp: 0.468

— US20100286145A1, “ISOPHTHALAMIDE DERIVATIVES INHIBITING BETA-SECRETASE ACTIVITY” (CoMentis, Inc., priority 2007, published 2010)
